Results reported in the supplement of paper PMC10307832.

Legend:
Assay in all cases: relative viability (nuclei count vs DMSO), 5 days (fraction); higher = more cells survive
[1] = compound: CC1=NC=CC(=C1)C2=CC=C(C=C2)CC(=O)NC3=CC=C(C=C3)C4=CN=CC=C4 [Wnt-C59] + Cc1nc(Nc2ncc(C(=O)Nc3c(C)cccc3Cl)s2)cc(N2CCN(CCO)CC2)n1 [Dasatinib] (partner 0.075 µM)
Procedure, shortened: (§1)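 Lung cancer cell lines in 1536-well plates got either a single drug or a fixed anchor-drug dose together with five library-drug doses (not always all listed) in √10 steps, by pin tool, on the day after seeding. Nuclei were counted after 5 days, and relative viability is the treated-to-vehicle ratio of nuclei counts. Values are medians of duplicate plates.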

[2] = compound: CC1=NC=CC(=C1)C2=CC=C(C=C2)CC(=O)NC3=CC=C(C=C3)C4=CN=CC=C4 [Wnt-C59] + NC(=O)Nc1cc(-c2cccc(F)c2)sc1C(=O)N[C@H]1CCCNC1 [AZD7762] (partner 0.2 µM)
Procedure, shortened: as §1

[3] = compound: CS(=O)(=O)CCNCc1ccc(-c2ccc3ncnc(Nc4ccc(OCc5cccc(F)c5)c(Cl)c4)c3c2)o1 [Lapatinib] + C[C@@H](Oc1cc(-c2cnn(C3CCNCC3)c2)cnc1N)c1c(Cl)ccc(F)c1Cl [Crizotinib] (partner 1 µM)
Procedure, shortened: as §1

[4] = compound: CC1=NC=CC(=C1)C2=CC=C(C=C2)CC(=O)NC3=CC=C(C=C3)C4=CN=CC=C4 [Wnt-C59] + O=C(CCCCCCC(=O)Nc1ccccc1)NO [Vorinostat] (partner 1 µM)
Procedure, shortened: as §1

Cell Line	relative viability ([1]; first compound 0.001 µM)	relative viability ([1]; first compound 0.01 µM)	relative viability ([1]; first compound 0.03162 µM)	relative viability ([1]; first compound 0.1 µM)	relative viability ([2]; first compound 0.001 µM)	relative viability ([2]; first compound 0.01 µM)	relative viability ([2]; first compound 0.03162 µM)	relative viability ([2]; first compound 0.1 µM)	relative viability ([3]; first compound 0.06325 µM)	relative viability ([3]; first compound 0.2 µM)	relative viability ([3]; first compound 0.6325 µM)	relative viability ([3]; first compound 2 µM)	relative viability ([4]; first compound 0.001 µM)	relative viability ([4]; first compound 0.01 µM)	relative viability ([4]; first compound 0.03162 µM)	relative viability ([4]; first compound 0.1 µM)	relative viability ([3]; first compound 0.02 µM)
HOP-62	0.696	0.66	0.716	0.697	0.403	0.598	0.769	0.478	0.892	0.991	0.934	0.948	0.639	0.576	0.508	0.637	
LCLC-103H	0.509	0.471	0.493	0.516	0.798	0.712	0.824	0.775	0.93	0.934	0.963	0.931	0.887	0.743	0.762	0.806	
Calu-6									0.801	0.909	0.763	0.753					0.846
NCI-H1650	0.302	0.333	0.309	0.322					0.795	0.854	0.9	0.596	0.69	0.638	0.606	0.516	0.977
NCI-H1703					0.158	0.107	0.135	0.129	0.873	0.774	0.879	0.63					0.696
LK-2	0.379	0.372	0.268	0.292	0.417	0.407	0.486	0.461		0.253	0.217	0.245	0.441	0.295	0.3	0.233	
LCLC-97TM1	0.764	0.75	0.772	0.889	0.287	0.303	0.362	0.206		0.593	0.472	0.357	0.733	0.765	0.901	0.706	
NCI-H1793	0.431		0.468	0.355	0.467	0.408	0.536	0.532					0.626	0.548	0.81	0.74	
SW 900	0.545	0.708	0.768	0.624	0.602	0.615	0.555	0.562					0.475	0.343	0.479	0.488	
SK-MES-1	0.393	0.264	0.39	0.337					0.974	1.08	0.806	0.731	1.12	1.11	1.21	1.03	0.95
NCI-H2023	0.563	0.538	0.628	0.333					0.419	0.491	0.633	0.281	0.757	0.499	0.742	0.487	0.539
NCI-H1792	0.753	0.771	0.992	0.718	0.659	0.676	0.701	0.854	0.987	0.985	0.946	0.918					0.92
NCI-H661	0.914	0.736	0.907	0.872					1.15	1.29	1.05	0.762	0.815	0.726	0.854	0.755	0.979
NCI-H1915	0.315	0.316	0.303	0.317	0.761	0.69	0.708	0.69	0.868	0.887	0.846	0.86	0.487	0.492	0.629	0.526	
EPLC-272H	0.399	0.269	0.399	0.36	0.246	0.247	0.289	0.247	0.722	0.831	0.79	0.639	0.394	0.561	0.512	0.396	
ChaGo-K-1	0.659	0.606	0.65	0.606	0.893	0.844	0.955	0.901	1.07	1.19	1.09	1.09	0.751	0.781	0.689	0.774	
NCI-H3122	0.824	0.951	0.893	0.894	1.03	0.949	1.05	0.973	0.224	0.27	0.268	0.274	1.05	1.05	0.989	0.971	0.277
IA-LM									0.98	0.713	0.881	0.644	0.934	0.906		0.939	0.823
EMC-BAC-2	0.327	0.36	0.34	0.341	0.941	0.975	0.897	0.975	0.635	0.788	0.661	0.74	0.421	0.412	0.409	0.751	0.729
NCI-H522	0.92	0.752	0.875	0.882	0.857	0.863	0.877	0.637					0.899	0.954	0.759	0.873	
NCI-H1734	0.418	0.452	0.516	0.442	0.589	0.517	0.641	0.543	0.481	0.737	0.669	0.663	0.76	0.822	0.833	0.816	
LC-2-ad	0.696	0.73	0.53	0.559	0.851	0.829	0.882	0.865	0.487	0.473	0.436	0.375	0.699	0.714	0.742	0.688	
ABC-1	0.509	0.605	0.506	0.592	0.89	0.686	0.488	0.518	0.928	1.32	1.22	0.967	1.05	1.07	1.07	1.18	
SW 1573	0.557	0.699	0.67	0.314					0.724	0.856	0.829	0.623	0.801	0.673	0.778	0.662	0.762

Cell Line	relative viability ([1]; first compound 0.001 µM)	relative viability ([1]; first compound 0.01 µM)	relative viability ([1]; first compound 0.03162 µM)	relative viability ([1]; first compound 0.1 µM)	relative viability ([2]; first compound 0.001 µM)	relative viability ([2]; first compound 0.01 µM)	relative viability ([2]; first compound 0.03162 µM)	relative viability ([2]; first compound 0.1 µM)	relative viability ([3]; first compound 0.06325 µM)	relative viability ([3]; first compound 0.2 µM)	relative viability ([3]; first compound 0.6325 µM)	relative viability ([3]; first compound 2 µM)	relative viability ([4]; first compound 0.001 µM)	relative viability ([4]; first compound 0.01 µM)	relative viability ([4]; first compound 0.03162 µM)	relative viability ([4]; first compound 0.1 µM)	relative viability ([3]; first compound 0.02 µM)
NCI-H1299									1.03	0.893	0.944	0.916					0.952
HCC-827	0.386	0.305	0.366	0.428	0.274	0.27	0.219	0.175	0.944	0.923	0.88	0.513	0.901	0.922	1.01	0.77	0.915
201T	0.615	0.578	0.505	0.558	0.713	0.697	0.598	0.606	0.996	1.02	0.966	0.977	0.979	0.991	1.03	0.983	0.869
HCC-15	0.667	0.634	0.644	0.574	1.28	1.34	1.29	1.06	0.786	0.808	0.835	0.704	0.851	0.817	1.05	0.892	
NCI-H2347	0.35	0.295	0.327	0.306	0.726	0.738	0.779	0.698	0.654	0.722	0.649	0.671	0.649	0.644	0.572	0.717	0.7
NCI-H596	0.609	0.477	0.554	0.611	1.06	1.03	0.987	1.08	0.849	1	0.997	0.659	0.601	0.603	0.59	0.76	0.916
LXF-289	0.251	0.25	0.231	0.221	1.06	1.07	1.09	1.07	0.85	0.805	0.779	0.743	0.72	0.766	0.783	0.801	0.819
NCI-H1755	0.429	0.405	0.436	0.41	0.498	0.433	0.436	0.473	0.82	0.899	0.818	0.809	0.721	0.71	0.744	0.752	0.851
NCI-H2405	0.207	0.232	0.221	0.233	0.759	0.75	0.759	0.8	0.753	0.884	0.824	0.767	1	1.05	1.15	1.17	0.628
NCI-H2170	0.549	0.354	0.601	0.555	0.762	0.688	0.992	0.836	0.904	0.694	0.475	0.223	0.803	0.795	0.834	0.809	1.13
NCI-H1648					0.565	0.797	0.53	0.622					0.421	0.369	0.655	0.364	
NCI-H2342	0.326	0.326	0.358	0.337	0.525	0.498	0.495	0.457					0.706	0.747	0.855	0.732	
NCI-H1563	0.456	0.509	0.475	0.468					0.874	0.861	0.789	0.774					0.881
HCC-44					1.07	0.952	0.97	1.01	0.743	0.837	0.802	0.675	1.16	1.02	1.13	1.12	0.747
EBC-1									0.179	0.178	0.174	0.18					0.181
COR-L23	0.483	0.571	0.641	0.413					0.676	0.697	0.602	0.581	0.457	0.452	0.624	0.454	0.71
NCI-H2009	0.31	0.331	0.311	0.311					1.05	1.05	1.03	0.959	0.722	0.679	0.758	0.712	1.09
A549									0.675	0.73	0.674	0.616					0.735
NCI-H1623	0.507	0.488	0.572	0.625													
NCI-H520	0.217	0.189	0.208	0.174					0.759	0.863	0.812	0.745	0.742	0.683	0.686	0.634	0.726
SK-LU-1	0.184	0.187	0.198	0.187					0.814	0.992	1.07	0.859	0.672	0.768	0.81	0.682	
NCI-H2228	0.503	0.429	0.615	0.524					0.342	0.462	0.379	0.297	0.654	0.657	0.587	0.838	0.603
NCI-H1395	0.406	0.398	0.423	0.444	0.39	0.383	0.426	0.389					0.724	0.675	0.564	1.1	
COR-L 105	0.275	0.357	0.308	0.304					0.635	0.639	0.58	0.279	0.991	0.71	0.877	0.857	0.727
